# Experimental data: PubChem BioAssay (NCI)
#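 Exposure lasted 48 hours, with cells grown in 96-well plates and compounds tested at five concentrations. GI50 = concentration required for 50% inhibition of growth. At the TGI there is no net growth.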
# Legend:
# Experiment in all cases: growth of human tumour cells (NCI), 48 h
# MDA-MB-231 breast = test system: MDA-MB-231 breast
# NCI-H23 lung = test system: NCI-H23 lung
# NCI/ADR-RES ovarian = test system: NCI/ADR-RES ovarian
# SK-MEL-28 melanoma = test system: SK-MEL-28 melanoma
# MALME-3M melanoma = test system: MALME-3M melanoma
# TK-10 renal = test system: TK-10 renal
# HOP-92 NSCLC = test system: HOP-92 NSCLC
# SK-MEL-2 melanoma = test system: SK-MEL-2 melanoma
# COLO 205 colon = test system: COLO 205 colon
# EKVX NSCLC = test system: EKVX NSCLC
# HT29 colon = test system: HT29 colon
# OVCAR-4 ovarian = test system: OVCAR-4 ovarian
# UACC-257 melanoma = test system: UACC-257 melanoma
# SK-OV-3 ovarian = test system: SK-OV-3 ovarian
# SNB-75 CNS = test system: SNB-75 CNS
# NCI-H522 lung = test system: NCI-H522 lung
# SF-539 CNS = test system: SF-539 CNS
# A549 NSCLC = test system: A549 NSCLC
# K-562 leukemia = test system: K-562 leukemia
# CAKI-1 renal = test system: CAKI-1 renal
# A498 renal = test system: A498 renal
# RXF 393 renal = test system: RXF 393 renal
# 786-0 renal = test system: 786-0 renal
# MDA-MB-435 = test system: MDA-MB-435
# KM12 colon = test system: KM12 colon
# MCF7 breast = test system: MCF7 breast
# OVCAR-3 ovarian = test system: OVCAR-3 ovarian
# SK-MEL-5 melanoma = test system: SK-MEL-5 melanoma
# NCI-H460 lung = test system: NCI-H460 lung
# OVCAR-8 ovarian = test system: OVCAR-8 ovarian
# HCT-15 colon = test system: HCT-15 colon
# SNB-19 CNS = test system: SNB-19 CNS
# U251 CNS = test system: U251 CNS
# CCRF-CEM leukemia = test system: CCRF-CEM leukemia
# ACHN renal = test system: ACHN renal
# HL-60(TB) leukemia = test system: HL-60(TB) leukemia
# SW-620 colon = test system: SW-620 colon
# OVCAR-5 ovarian = test system: OVCAR-5 ovarian
# SR leukemia = test system: SR leukemia
# RPMI-8226 leukemia = test system: RPMI-8226 leukemia
# DU-145 prostate = test system: DU-145 prostate
# NCI-H226 lung = test system: NCI-H226 lung
# HCT-116 colon = test system: HCT-116 colon
# HCC-2998 colon = test system: HCC-2998 colon
# BT-549 breast = test system: BT-549 breast
# UO-31 renal = test system: UO-31 renal
# M14 melanoma = test system: M14 melanoma
# SN12C renal = test system: SN12C renal
# MOLT-4 leukemia = test system: MOLT-4 leukemia
# PC-3 prostate = test system: PC-3 prostate
# SF-295 CNS = test system: SF-295 CNS
# UACC-62 melanoma = test system: UACC-62 melanoma
# HOP-62 NSCLC = test system: HOP-62 NSCLC
# LOX IMVI melanoma = test system: LOX IMVI melanoma
# T-47D breast = test system: T-47D breast
# IGROV1 ovarian = test system: IGROV1 ovarian
# SF-268 CNS = test system: SF-268 CNS
# HS 578T breast = test system: HS 578T breast
smiles,measurement,setting,value
O=C1NC(=Nc2ccc(O)cc2)S/C1=C\c1cccs1,GI50,MDA-MB-231 breast,> 100 µM
same,TGI,MDA-MB-231 breast,> 100 µM
same,GI50,NCI-H23 lung,> 100 µM
same,TGI,NCI-H23 lung,> 100 µM
same,GI50,NCI/ADR-RES ovarian,> 100 µM
same,TGI,NCI/ADR-RES ovarian,> 100 µM
same,GI50,SK-MEL-28 melanoma,> 100 µM
same,TGI,SK-MEL-28 melanoma,> 100 µM
same,GI50,MALME-3M melanoma,> 100 µM
same,TGI,MALME-3M melanoma,> 100 µM
same,GI50,TK-10 renal,> 100 µM
same,TGI,TK-10 renal,> 100 µM
same,GI50,HOP-92 NSCLC,> 100 µM
same,TGI,HOP-92 NSCLC,> 100 µM
same,GI50,SK-MEL-2 melanoma,> 100 µM
same,TGI,SK-MEL-2 melanoma,> 100 µM
same,GI50,COLO 205 colon,> 100 µM
same,TGI,COLO 205 colon,> 100 µM
same,GI50,EKVX NSCLC,> 100 µM
same,TGI,EKVX NSCLC,> 100 µM
same,GI50,HT29 colon,> 100 µM
same,TGI,HT29 colon,> 100 µM
same,GI50,OVCAR-4 ovarian,> 100 µM
same,TGI,OVCAR-4 ovarian,> 100 µM
same,GI50,UACC-257 melanoma,> 100 µM
same,TGI,UACC-257 melanoma,> 100 µM
same,GI50,SK-OV-3 ovarian,> 100 µM
same,TGI,SK-OV-3 ovarian,> 100 µM
CC(=O)OC(COc1ccc2c(c1)[n+]([O-])nc(N)[n+]2[O-])CN1CCCCC1 (stereo not given),TGI,SNB-75 CNS,46.7 µM
same,TGI,NCI-H522 lung,38.7 µM
same,TGI,MDA-MB-231 breast,28 µM
same,TGI,SF-539 CNS,39 µM
same,TGI,A549 NSCLC,40.7 µM
same,TGI,NCI-H23 lung,47.9 µM
same,TGI,K-562 leukemia,38.5 µM
same,TGI,CAKI-1 renal,> 100 µM
same,TGI,NCI/ADR-RES ovarian,> 100 µM
same,TGI,SK-MEL-28 melanoma,> 100 µM
same,TGI,A498 renal,16.5 µM
same,TGI,RXF 393 renal,> 100 µM
same,TGI,786-0 renal,36.6 µM
same,TGI,MDA-MB-435,> 100 µM
same,TGI,MALME-3M melanoma,24.2 µM
same,TGI,KM12 colon,50.4 µM
same,TGI,TK-10 renal,96.4 µM
same,TGI,HOP-92 NSCLC,> 100 µM
same,TGI,MCF7 breast,65.8 µM
same,TGI,OVCAR-3 ovarian,38 µM
same,TGI,SK-MEL-5 melanoma,14.6 µM
same,TGI,SK-MEL-2 melanoma,26.4 µM
same,TGI,NCI-H460 lung,21.8 µM
same,TGI,OVCAR-8 ovarian,41 µM
same,TGI,COLO 205 colon,30.5 µM
same,TGI,HCT-15 colon,31.6 µM
same,TGI,HT29 colon,23.1 µM
same,TGI,SNB-19 CNS,> 100 µM
same,TGI,U251 CNS,43 µM
same,TGI,OVCAR-4 ovarian,> 100 µM
same,TGI,CCRF-CEM leukemia,79.3 µM
same,TGI,ACHN renal,39.3 µM
same,TGI,HL-60(TB) leukemia,26.9 µM
same,TGI,SW-620 colon,> 100 µM
same,TGI,OVCAR-5 ovarian,61.2 µM
same,TGI,SR leukemia,70.1 µM
same,TGI,RPMI-8226 leukemia,25.8 µM
same,TGI,DU-145 prostate,54.9 µM
same,TGI,NCI-H226 lung,54 µM
same,TGI,HCT-116 colon,59.2 µM
same,TGI,HCC-2998 colon,22.5 µM
same,TGI,UACC-257 melanoma,29.1 µM
same,TGI,BT-549 breast,> 100 µM
same,TGI,UO-31 renal,> 100 µM
same,TGI,M14 melanoma,38.7 µM
same,TGI,SN12C renal,40.3 µM
same,TGI,MOLT-4 leukemia,14.8 µM
NC(N)=N/N=C/c1c(-c2ccc(Cl)c([N+](=O)[O-])c2)nc2sccn12,TGI,MDA-MB-231 breast,3.24 µM
same,TGI,PC-3 prostate,3.11 µM
same,TGI,SF-539 CNS,3.27 µM
same,TGI,NCI/ADR-RES ovarian,> 100 µM
same,TGI,SK-MEL-28 melanoma,27.8 µM
same,TGI,A498 renal,3.14 µM
same,TGI,SF-295 CNS,3.47 µM
same,TGI,786-0 renal,3.15 µM
same,TGI,TK-10 renal,3.16 µM
same,TGI,SK-MEL-5 melanoma,3.26 µM
same,TGI,NCI-H460 lung,3.3 µM
same,TGI,COLO 205 colon,2.61 µM
same,TGI,HCT-15 colon,3.5 µM
same,TGI,HT29 colon,2.8 µM
same,TGI,OVCAR-4 ovarian,4.49 µM
same,TGI,ACHN renal,3.15 µM
same,TGI,OVCAR-5 ovarian,3.12 µM
same,TGI,DU-145 prostate,3.17 µM
same,TGI,NCI-H226 lung,6.23 µM
same,TGI,HCT-116 colon,2.25 µM
same,TGI,HCC-2998 colon,2.94 µM
same,TGI,UACC-62 melanoma,3.27 µM
same,TGI,UO-31 renal,3.05 µM
same,TGI,SN12C renal,3.29 µM
N#CC1=C(N)N=C(N2CCOCC2)C(C#N)C12Nc1ccccc1S2 (stereo not given),GI50,NCI-H522 lung,17.6 µM
same,TGI,NCI-H522 lung,51.5 µM
same,GI50,HOP-62 NSCLC,61.4 µM
same,TGI,HOP-62 NSCLC,> 100 µM
same,GI50,MDA-MB-231 breast,26.7 µM
same,TGI,MDA-MB-231 breast,> 100 µM
same,GI50,LOX IMVI melanoma,16.5 µM
same,TGI,LOX IMVI melanoma,41.1 µM
same,GI50,PC-3 prostate,20.1 µM
same,TGI,PC-3 prostate,> 100 µM
same,GI50,SF-539 CNS,18.9 µM
same,TGI,SF-539 CNS,35.5 µM
same,GI50,A549 NSCLC,33.3 µM
same,TGI,A549 NSCLC,> 100 µM
same,GI50,K-562 leukemia,26.7 µM
same,TGI,K-562 leukemia,> 100 µM
same,GI50,CAKI-1 renal,12.6 µM
same,TGI,CAKI-1 renal,44.4 µM
same,GI50,NCI/ADR-RES ovarian,39.3 µM
same,TGI,NCI/ADR-RES ovarian,75.9 µM
same,GI50,SF-295 CNS,26.3 µM
same,TGI,SF-295 CNS,79.1 µM
same,GI50,RXF 393 renal,19 µM
same,TGI,RXF 393 renal,> 100 µM
same,GI50,786-0 renal,29.6 µM
same,TGI,786-0 renal,76.2 µM
same,GI50,MDA-MB-435,22.9 µM
same,TGI,MDA-MB-435,61.1 µM
same,GI50,KM12 colon,15 µM
same,TGI,KM12 colon,33.6 µM
same,GI50,TK-10 renal,14 µM
same,TGI,TK-10 renal,49.2 µM
same,GI50,HOP-92 NSCLC,41.3 µM
same,TGI,HOP-92 NSCLC,> 100 µM
same,GI50,OVCAR-3 ovarian,20.1 µM
same,TGI,OVCAR-3 ovarian,58.1 µM
same,GI50,SK-MEL-5 melanoma,12.5 µM
same,TGI,SK-MEL-5 melanoma,28.2 µM
same,GI50,SK-MEL-2 melanoma,35.2 µM
same,TGI,SK-MEL-2 melanoma,95 µM
same,GI50,T-47D breast,27.3 µM
same,TGI,T-47D breast,88.2 µM
same,GI50,IGROV1 ovarian,67.3 µM
same,TGI,IGROV1 ovarian,> 100 µM
same,GI50,NCI-H460 lung,16.6 µM
same,TGI,NCI-H460 lung,37.1 µM
same,GI50,OVCAR-8 ovarian,4.23 µM
same,TGI,OVCAR-8 ovarian,59.5 µM
same,GI50,COLO 205 colon,12.7 µM
same,TGI,COLO 205 colon,52.4 µM
same,GI50,EKVX NSCLC,1.7 µM
same,TGI,EKVX NSCLC,15.6 µM
same,GI50,HCT-15 colon,29.1 µM
same,TGI,HCT-15 colon,> 100 µM
same,GI50,SNB-19 CNS,33.8 µM
same,TGI,SNB-19 CNS,> 100 µM
same,GI50,U251 CNS,27.8 µM
same,TGI,U251 CNS,> 100 µM
same,GI50,ACHN renal,21.8 µM
same,TGI,ACHN renal,76 µM
same,GI50,HL-60(TB) leukemia,51 µM
same,TGI,HL-60(TB) leukemia,> 100 µM
same,GI50,SW-620 colon,23.2 µM
same,TGI,SW-620 colon,> 100 µM
same,GI50,OVCAR-5 ovarian,45.1 µM
same,TGI,OVCAR-5 ovarian,> 100 µM
same,GI50,SR leukemia,9.31 µM
same,TGI,SR leukemia,> 100 µM
same,GI50,RPMI-8226 leukemia,16 µM
same,TGI,RPMI-8226 leukemia,88.5 µM
same,GI50,DU-145 prostate,19.2 µM
same,TGI,DU-145 prostate,56.5 µM
same,GI50,NCI-H226 lung,27.8 µM
same,TGI,NCI-H226 lung,> 100 µM
same,GI50,HCT-116 colon,35.4 µM
same,TGI,HCT-116 colon,> 100 µM
same,GI50,UACC-257 melanoma,28 µM
same,TGI,UACC-257 melanoma,89.1 µM
same,GI50,SF-268 CNS,8.05 µM
same,TGI,SF-268 CNS,27.5 µM
same,GI50,HS 578T breast,1.75 µM
same,TGI,HS 578T breast,7.17 µM
same,GI50,UACC-62 melanoma,18.8 µM
same,TGI,UACC-62 melanoma,40.9 µM
same,GI50,BT-549 breast,23.3 µM
same,TGI,BT-549 breast,60.6 µM
same,GI50,UO-31 renal,16.4 µM
same,TGI,UO-31 renal,61.4 µM
same,GI50,SK-OV-3 ovarian,24.1 µM
same,TGI,SK-OV-3 ovarian,> 100 µM
same,GI50,M14 melanoma,35 µM
same,TGI,M14 melanoma,65.4 µM
same,GI50,SN12C renal,27.5 µM
same,TGI,SN12C renal,82.9 µM
same,GI50,MOLT-4 leukemia,23.4 µM
same,TGI,MOLT-4 leukemia,> 100 µM
